In patent US20230085307A1, “PYRIDAZINONE COMPOUND AND HERBICIDE” (NISSAN CHEMICAL CORPORATION, priority 2019, published 2023):

Key:
wild oat [1] = assay: Test Example 5: herbicidal effect by foliage application, plastic box (Table 20, symbol I); format: in vivo, wild oat (Avena fatua); settings: foliage application, 320 g/ha, evaluated three weeks after application
Outline: (§1)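 Sow seeds spot-wise in sterilized diluvial soil; cover with ~1.5 cm soil. Grow 14 days in greenhouse, 25° C. to 30° C. Spray foliage with emulsion diluted to predetermined amount. Rate effect after 3 weeks.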

velvetleaf [2] = assay: Test Example 4: herbicidal effect by soil treatment (Table 19, symbol M); format: in vivo, velvetleaf (Abutilon theophrasti); settings: for herbicidal effect rating, M: velvetleaf: 320 g/ha
Outline: (§2)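 Soil-surface application: an emulsion agent diluted with water to the predetermined dose is sprayed uniformly over seeds lying under roughly 1.5 cm of sterilized diluvial soil. Boxes stay in a greenhouse at 25° C. to 30° C. Three weeks later, each species is graded on previously defined criteria.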

barnyard grass [3] = assay: Test Example 4: herbicidal effect by soil treatment (Table 19, symbol H); format: in vivo, barnyard grass (Echinochloa crus-galli); settings: for herbicidal effect rating, H: barnyard grass: 320 g/ha
Outline: as §2

lambsquarters = assay: Test Example 4: herbicidal effect by soil treatment (Table 19, symbol O); format: in vivo, lambsquarters (Chenopodium album); settings: for herbicidal effect rating, O: lambsquarters: 320 g/ha
Outline: as §2

velvetleaf [4] = assay: Test Example 5: herbicidal effect by foliage application, plastic box (Table 20, symbol M); format: in vivo, velvetleaf (Abutilon theophrasti); settings: foliage application, 320 g/ha, evaluated three weeks after application
Outline: as §1

barnyard grass [5] = assay: Test Example 3: herbicidal effect by foliage application, Wagner pot (Table 18, symbol H); format: in vivo, barnyard grass (Echinochloa crus-galli); settings: 320 g/ha
Outline: (§3)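 Plants were sown in alluvial soil held under 0.1–0.5 cm standing water and grown 14 days in a greenhouse at 25–30 °C. An emulsifiable formulation, water-diluted to the set dose, was then sprayed onto the foliage, and effects were scored three weeks later using previously defined criteria.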

green foxtail [6] = assay: Test Example 5: herbicidal effect by foliage application, plastic box (Table 20, symbol G); format: in vivo, green foxtail (Setaria viridis); settings: foliage application, 320 g/ha, evaluated three weeks after application
Outline: as §1

redroot pigweed [7] = assay: Test Example 5: herbicidal effect by foliage application, plastic box (Table 20, symbol N); format: in vivo, redroot pigweed (Amaranthus retroflexus); settings: foliage application, 320 g/ha, evaluated three weeks after application
Outline: as §1

late watergrass = assay: Test Example 2: herbicidal activity, application during weed generation under submerged conditions (Table 17, symbol A); format: in vivo, late watergrass (Echinochloa oryzicola); settings: AAH 320 g/ha; application during weed generation, submerged conditions
Outline: (§4)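 Mixed weed seedlings in alluvial soil under a 4 cm water layer, greenhouse-grown at 25–30° C. Compound given as a diluted emulsion into the floodwater at the 1–2 leaf stage; response graded after three weeks.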

blackgrass = assay: Test Example 5: herbicidal effect by foliage application, plastic box (Table 20, symbol J); format: in vivo, blackgrass (Alopecurus myosuroides); settings: foliage application, 320 g/ha, evaluated three weeks after application
Outline: as §1

wild oat [8] = assay: Test Example 4: herbicidal effect by soil treatment (Table 19, symbol I); format: in vivo, wild oat (Avena fatua); settings: for herbicidal effect rating, I: wild oat: 320 g/ha
Outline: as §2

Japanese bulrush = assay: Test Example 2: herbicidal activity, application during weed generation under submerged conditions (Table 17, symbol B); format: in vivo, Japanese bulrush (Schoenoplectus juncoides); settings: AAH 320 g/ha; application during weed generation, submerged conditions
Outline: as §4

windgrass = assay: Test Example 5: herbicidal effect by foliage application, plastic box (Table 20, symbol L); format: in vivo, windgrass (Apera spica-venti); settings: foliage application, 320 g/ha, evaluated three weeks after application
Outline: as §1

chickweed [9] = assay: Test Example 5: herbicidal effect by foliage application, plastic box (Table 20, symbol P); format: in vivo, common chickweed (Stellaria media); settings: foliage application, 320 g/ha, evaluated three weeks after application
Outline: as §1

Italian ryegrass [10] = assay: Test Example 5: herbicidal effect by foliage application, plastic box (Table 20, symbol K); format: in vivo, Italian ryegrass (Lolium multiflorum); settings: foliage application, 320 g/ha, evaluated three weeks after application
Outline: as §1

persian speedwell = assay: Test Example 5: herbicidal effect by foliage application, plastic box (Table 20, symbol R); format: in vivo, Persian speedwell (Veronica persica); settings: foliage application, 320 g/ha, evaluated three weeks after application
Outline: as §1

southern crabgrass = assay: Test Example 4: herbicidal effect by soil treatment (Table 19, symbol F); format: in vivo, southern crabgrass (Digitaria ciliaris); settings: for herbicidal effect rating, F: southern crabgrass: 320 g/ha
Outline: as §2

green foxtail [11] = assay: Test Example 4: herbicidal effect by soil treatment (Table 19, symbol G); format: in vivo, green foxtail (Setaria viridis); settings: for herbicidal effect rating, G: green foxtail: 320 g/ha
Outline: as §2

Italian ryegrass [12] = assay: Test Example 4: herbicidal effect by soil treatment (Table 19, symbol K); format: in vivo, Italian ryegrass (Lolium multiflorum); settings: for herbicidal effect rating, K: Italian ryegrass: 320 g/ha
Outline: as §2

redroot pigweed [13] = assay: Test Example 4: herbicidal effect by soil treatment (Table 19, symbol N); format: in vivo, redroot pigweed (Amaranthus retroflexus); settings: for herbicidal effect rating, N: redroot pigweed: 320 g/ha
Outline: as §2

rice flat sedge = assay: Test Example 3: herbicidal effect by foliage application, Wagner pot (Table 18, symbol E); format: in vivo, rice flat sedge (Cyperus iria); settings: 320 g/ha
Outline: as §3

chickweed [14] = assay: Test Example 4: herbicidal effect by soil treatment (Table 19, symbol P); format: in vivo, common chickweed (Stellaria media); settings: for herbicidal effect rating, P: chickweed: 320 g/ha
Outline: as §2

[15] = amount of applied herbicide 320 g/ha

With CCCC(=O)Oc1c(C)nn(C)c(=O)c1-c1c(-c2ccc(OC)c(OC)c2)sc2ccc(F)cc12 [2-089] the “herbicidal effect on I: wild oat” value (wild oat [1]) was 0 (Herbicidal rate of 5% or less (almost no effect)), the “herbicidal effect rating, M: velvetleaf” value (velvetleaf [2]) was 4 (Herbicidal rate of 70% or more and less than 90%) and the “herbicidal effect rating, H: barnyard grass” value (barnyard grass [3]) was 4 (Herbicidal rate of 70% or more and less than 90%). The “herbicidal effect rating, O: lambsquarters” value (lambsquarters) was 5 (Herbicidal rate of 90% or more (almost completely withered)), the “herbicidal effect on M: velvetleaf” value (velvetleaf [4]) was 5 (Herbicidal rate of 90% or more (almost completely withered)) and the “herbicidal effect on H (barnyard grass), rating 0-5” value (from here on “herbicidal effect on H”) (barnyard grass [5]) was 4 (Herbicidal rate of 70% or more and less than 90%). For the same compound, the “herbicidal effect on G: green foxtail” value (green foxtail [6]) was 5 (Herbicidal rate of 90% or more (almost completely withered)), the “herbicidal effect on N: redroot pigweed” value (redroot pigweed [7]) was 4 (Herbicidal rate of 70% or more and less than 90%) and the “herbicidal effect rating, A: late watergrass” value (late watergrass) was 4 (Herbicidal rate of 70% or more and less than 90%). The “herbicidal effect on J: blackgrass” value (blackgrass) was 0 (Herbicidal rate of 5% or less (almost no effect)), the “herbicidal effect rating, I: wild oat” value (wild oat [8]) was 0 (Herbicidal rate of 5% or less (almost no effect)) and the “herbicidal effect rating, B: Japanese bulrush” value (“herbicidal effect rating, B” for short) (Japanese bulrush) was 3 (Herbicidal rate of 40% or more and less than 70%). The “herbicidal effect on L: windgrass” value (windgrass) was 0 (Herbicidal rate of 5% or less (almost no effect)), the “herbicidal effect on P: chickweed” value (chickweed [9]) was 5 (Herbicidal rate of 90% or more (almost completely withered)) and the “herbicidal effect on K: Italian ryegrass” value (Italian ryegrass [10]) was 4 (Herbicidal rate of 70% or more and less than 90%). The “herbicidal effect on R: persian speedwell” value (“herbicidal effect on R” below) (persian speedwell) was 5 (Herbicidal rate of 90% or more (almost completely withered)), the “herbicidal effect rating, F: southern crabgrass” value (southern crabgrass) was 4 (Herbicidal rate of 70% or more and less than 90%) and the “herbicidal effect rating, G: green foxtail” value (green foxtail [11]) was 5 (Herbicidal rate of 90% or more (almost completely withered)). For the same compound, the “herbicidal effect rating, K: Italian ryegrass” value (Italian ryegrass [12]) was 4 (Herbicidal rate of 70% or more and less than 90%), the “herbicidal effect rating, N: redroot pigweed” value (redroot pigweed [13]) was 4 (Herbicidal rate of 70% or more and less than 90%) and the “herbicidal effect on E (rice flat sedge), rating 0-5” value (“herbicidal effect on E” below) (rice flat sedge) was 5 (Herbicidal rate of 90% or more (almost completely withered)). For the same compound, the “herbicidal effect rating, P: chickweed” value (chickweed [14]) was 3 (Herbicidal rate of 40% or more and less than 70%).
With CCCC(=O)Oc1c(C)nn(C)c(=O)c1-c1c(-c2ccc3c(c2)OCO3)sc2ccc(F)cc12 [2-091] the “herbicidal effect on I: wild oat” value (wild oat [1]) was 0 (Herbicidal rate of 5% or less (almost no effect)), the “herbicidal effect rating, M: velvetleaf” value (velvetleaf [2]) was 5 (Herbicidal rate of 90% or more (almost completely withered)) and the “herbicidal effect rating, H: barnyard grass” value (barnyard grass [3]) was 2 (Herbicidal rate of 20% or more and less than 40%). For the same compound, the “herbicidal effect rating, O: lambsquarters” value (lambsquarters) was 5 (Herbicidal rate of 90% or more (almost completely withered)), the “herbicidal effect on M: velvetleaf” value (velvetleaf [4]) was 5 (Herbicidal rate of 90% or more (almost completely withered)) and the “herbicidal effect on H” value (barnyard grass [5]) was 3 (Herbicidal rate of 40% or more and less than 70%). For the same compound, the “herbicidal effect on G: green foxtail” value (green foxtail [6]) was 1 (Herbicidal rate of 5% or more and less than 20%), the “herbicidal effect on N: redroot pigweed” value (redroot pigweed [7]) was 3 (Herbicidal rate of 40% or more and less than 70%) and the “herbicidal effect rating, A: late watergrass” value (late watergrass) was 0 (Herbicidal rate of 5% or less (almost no effect)). For the same compound, the “herbicidal effect on J: blackgrass” value (blackgrass) was 3 (Herbicidal rate of 40% or more and less than 70%), the “herbicidal effect rating, I: wild oat” value (wild oat [8]) was 0 (Herbicidal rate of 5% or less (almost no effect)) and the “herbicidal effect rating, B” value (Japanese bulrush) was 3 (Herbicidal rate of 40% or more and less than 70%). The “herbicidal effect on L: windgrass” value (windgrass) was 0 (Herbicidal rate of 5% or less (almost no effect)), the “herbicidal effect on P: chickweed” value (chickweed [9]) was 5 (Herbicidal rate of 90% or more (almost completely withered)) and the “herbicidal effect on K: Italian ryegrass” value (Italian ryegrass [10]) was 4 (Herbicidal rate of 70% or more and less than 90%). For the same compound, the “herbicidal effect on R” value (persian speedwell) was 5 (Herbicidal rate of 90% or more (almost completely withered)), the “herbicidal effect rating, F: southern crabgrass” value (southern crabgrass) was 2 (Herbicidal rate of 20% or more and less than 40%) and the “herbicidal effect rating, G: green foxtail” value (green foxtail [11]) was 3 (Herbicidal rate of 40% or more and less than 70%). For the same compound, the “herbicidal effect rating, K: Italian ryegrass” value (Italian ryegrass [12]) was 3 (Herbicidal rate of 40% or more and less than 70%), the “herbicidal effect rating, N: redroot pigweed” value (redroot pigweed [13]) was 5 (Herbicidal rate of 90% or more (almost completely withered)) and the “herbicidal effect on E” value (rice flat sedge) was 5 (Herbicidal rate of 90% or more (almost completely withered)). The “herbicidal effect rating, P: chickweed” value (chickweed [14]) was 1 (Herbicidal rate of 5% or more and less than 20%).
In the case of CCCC(=O)Oc1c(C)nn(C)c(=O)c1-c1c(-c2ccc(Cl)cc2)sc2ccc(Cl)cc12 [2-100], the “herbicidal effect on I: wild oat” value (wild oat [1]) is reported as 5 (Herbicidal rate of 90% or more (almost completely withered)), the “M: velvetleaf, herbicidal effect rating” value (velvetleaf [2]; [15]) is reported as 0 (Herbicidal rate of 5% or less (almost no effect)) and the “H: barnyard grass, herbicidal effect rating” value (barnyard grass [3]; [15]) is reported as 0 (Herbicidal rate of 5% or less (almost no effect)). For the same compound, the “O: lambsquarters, herbicidal effect rating” value (lambsquarters; [15]) was 2 (Herbicidal rate of 20% or more and less than 40%), the “herbicidal effect on M: velvetleaf” value (velvetleaf [4]) was 5 (Herbicidal rate of 90% or more (almost completely withered)) and the “herbicidal effect on H” value (barnyard grass [5]) was 5 (Herbicidal rate of 90% or more (almost completely withered)). The “herbicidal effect on G: green foxtail” value (green foxtail [6]) was 4 (Herbicidal rate of 70% or more and less than 90%), the “herbicidal effect on N: redroot pigweed” value (redroot pigweed [7]) was 5 (Herbicidal rate of 90% or more (almost completely withered)) and the “herbicidal effect rating, A: late watergrass” value (late watergrass) was 3 (Herbicidal rate of 40% or more and less than 70%). For the same compound, the “herbicidal effect on J: blackgrass” value (blackgrass) was 4 (Herbicidal rate of 70% or more and less than 90%), the “I: wild oat, herbicidal effect rating” value (wild oat [8]; [15]) was 0 (Herbicidal rate of 5% or less (almost no effect)) and the “herbicidal effect rating, B” value (Japanese bulrush) was 0 (Herbicidal rate of 5% or less (almost no effect)). For the same compound, the “herbicidal effect on L: windgrass” value (windgrass) was 5 (Herbicidal rate of 90% or more (almost completely withered)), the “herbicidal effect on P: chickweed” value (chickweed [9]) was 5 (Herbicidal rate of 90% or more (almost completely withered)) and the “herbicidal effect on K: Italian ryegrass” value (Italian ryegrass [10]) was 5 (Herbicidal rate of 90% or more (almost completely withered)). For the same compound, the “herbicidal effect on R” value (persian speedwell) was 5 (Herbicidal rate of 90% or more (almost completely withered)), the “F: southern crabgrass, herbicidal effect rating” value (southern crabgrass; [15]) was 0 (Herbicidal rate of 5% or less (almost no effect)) and the “G: green foxtail, herbicidal effect rating” value (green foxtail [11]; [15]) was 0 (Herbicidal rate of 5% or less (almost no effect)). The “K: Italian ryegrass, herbicidal effect rating” value (Italian ryegrass [12]; [15]) was 3 (Herbicidal rate of 40% or more and less than 70%), the “N: redroot pigweed, herbicidal effect rating” value (redroot pigweed [13]; [15]) was 4 (Herbicidal rate of 70% or more and less than 90%) and the “herbicidal effect on E” value (rice flat sedge) was 3 (Herbicidal rate of 40% or more and less than 70%). For the same compound, the “P: chickweed, herbicidal effect rating” value (chickweed [14]; [15]) was 1 (Herbicidal rate of 5% or more and less than 20%).
